The text below walks through data of PMC9737184, “In Vitro Study of Cytotoxic Mechanisms of Alkylphospholipids and Alkyltriazoles in Acute Lymphoblastic Leukemia Models” (Molecules, 2022).

In data set [1] the test system is CCRF-CEM (acute lymphoblastic leukemia). The experiment in a line: Annexin V-FITC/PI cytotoxicity, concentration-response. In kind it is cell-based. Particulars: Homo sapiens, CCRF-CEM cells, 24 h. The procedure:
(§1) Figure 2 Effects of the alkyltriazole compounds C9 and C21 on the viability of different myeloblastic and lymphoblastic leukemia lineages. Lineages cells at 2 × 10^5 cells/mL were used. Cells were exposed to concentrations ranging from 0 to 150 µM for 24 h, and cell viability was assessed by annexin V-FITC/PI staining and flow cytometric analysis. (A) Chemical structure of C9, with a hydroxyl group and an iodine atom as substituents.
(§2) Human leukemia cell lines (Kasumi-1, K-562, ARH-77, Jurkat and CCRF-CEM, see Table S2) were purchased from American Type Culture Collection-ATCC (Manassas, VA, USA). The cells were maintained in RPMI 1640 (Sigma-Aldrich, Burlington, MA, USA) culture medium, supplemented with 10% fetal bovine serum, 100 U/mL penicillin (Sigma-Aldrich, Burlington, MA, USA) and 100 µg/mL streptomycin (Sigma-Aldrich, Burlington, MA, USA). Cells were cultured in a humidified atmosphere at 37 °C and 5% CO2.
(§3) Leukemia or PBMC cells (2 × 10^5 cells/mL) were incubated for 24 h in both the absence and presence of compounds. PBMCs were also treated with vinblastine (Sigma-Aldrich, Burlington, MA, USA) for 24 h as the positive control. Then, the cells were centrifuged and resuspended in binding buffer (0.01 M HEPES, pH 7.4, containing 0.14 M NaCl, and 2.5 mM CaCl2) and incubated at room temperature with annexin V-FITC (BD Biosciences, San Jose, CA, USA) and 5 µg/mL PI (Sigma-Aldrich, Burlington, MA, USA) for 20 min. Sample analysis was performed using an Accuri C6 flow cytometer (BD Biosciences, San Jose, CA, USA) with the acquisition value of 10,000 events.

Data set [2] relates to Jurkat (acute lymphoblastic leukemia). The data set is described as above. Format: cell-based. Particulars: Homo sapiens, Jurkat cells, 24 h. As for the experimental part:
as §1, §2, §3

Data set [3] deals with Jurkat and CCRF-CEM lineages. The experiment in a line: Annexin V-FITC/PI cytotoxicity, EC50 span over ALL lineages (discussion). Format: cell-based. The note with it: Homo sapiens. The procedure: as §1, §2
Leukemia or PBMC cells (2 × 10^5 cells/mL) were incubated for 24 h in both the absence and presence of compounds. PBMCs were also treated with vinblastine (Sigma-Aldrich, Burlington, MA, USA) for 24 h as the positive control. […]

The target of data set [4] is T1, cathepsin B (Homo sapiens, UniProt P07858). The experiment in a line: Cathepsin B inhibition, Z-FR-AMC fluorogenic assay (IC50). Format: biochemical. Particulars: Z-FR-AMC 50 µM, pH 5.5, 37 °C. As for the experimental part:
(§4) Cathepsin L was assayed in a reaction buffer of 100 mM sodium acetate, containing 100 mM NaCl, 5 mM EDTA and 20% glycerol at pH 5.5. Cathepsin B was assayed in the same buffer supplemented with 0.01% Triton X-100. The enzymes were pre-incubated in the presence of 3 mM DTT for 5 min at 37 °C in a 1 mL final volume with constant stirring. The enzyme activities were monitored using the fluorogenic probe Z-FR-AMC (50 µM and 5 µM for cathepsin B and L, respectively), and the fluorescence was monitored by spectrofluorometry using the fluorometer RF6000 (Shimadzu, Tokyo, Japan) set to λEx = 360 nm and λEm = 480 nm. […] The data were analyzed by Grafit 5.0.13 software using Equation (1). (1) y=100%/1+(x/IC50)^S

The target in data set [5] is T2, cathepsin L (Homo sapiens, UniProt P07711). The data set can be described thus: Cathepsin L inhibition, Z-FR-AMC fluorogenic assay (IC50). Format: biochemical. The note with it: Z-FR-AMC 5 µM, pH 5.5, 37 °C. The procedure: as §4
T2 sequence (P07711 114-333): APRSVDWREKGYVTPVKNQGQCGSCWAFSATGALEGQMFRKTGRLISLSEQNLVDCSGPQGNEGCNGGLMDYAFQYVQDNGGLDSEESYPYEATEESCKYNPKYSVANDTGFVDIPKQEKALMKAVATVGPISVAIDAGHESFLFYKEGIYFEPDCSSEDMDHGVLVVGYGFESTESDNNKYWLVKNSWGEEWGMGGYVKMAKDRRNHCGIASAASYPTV
Data set [6] has as its system ARH-77 (plasma cell leukemia). The data set can be described thus: Annexin V-FITC/PI cytotoxicity, concentration-response. Format: cell-based. Particulars: Homo sapiens, ARH-77 cells, 24 h. The procedure: as §1, §2, §3
Data set [7] relates to K562 (chronic myeloblastic leukemia). The description is as above. Format: cell-based. Particulars: Homo sapiens, K562 cells, 24 h. As for the experimental part:
as §1, §2, §3

The subject of data set [8] is Kasumi-1 (acute myeloblastic leukemia). The data set is described as above. In kind it is cell-based. Particulars: Homo sapiens, Kasumi cells, 24 h. As for the experimental part:
as §1, §2, §3

The test system of data set [9] is PBMCs. The data set can be described thus: Annexin V-FITC/PI cytotoxicity on healthy control cells. Format: cell-based, human. Particulars: for cytotoxicity to PBMCs compared with vinblastine: 24 h of exposure at different concentrations; for sensitivity of PBMCs compared with the tumor lineages: healthy control cells, 24 h.
From the text: Blood was collected using EDTA Vacuum Blood Collection Tubes. Peripheral blood mononuclear cells were isolated from three normal healthy individuals after they provided informed consent and after prior approval by the local Ethics Committee of University of Mogi das Cruzes (ethical appreciation number 72986617.3.0000.5497, and approval number 2.236.397). The fraction of mononuclear cells was separated from the blood by centrifugation with Ficoll-Histopaque-1077 (density 1.077 g/mL, Sigma-Aldrich, Burlington, MA, USA) at 400× g for 30 min. Mononuclear cells were maintained in 100 U/mL penicillin and […] streptomycin in an incubator with a humidified atmosphere at 37 °C and 5% CO2.
as §3, with “events. […]” for “events.”
Figure S3. Concentration-response curve of cytotoxicity of compounds C9, C21 and vinblastine on PBMCs. PBMCs cells were cultured (2x10^5 cells/mL) on 96-well microplates. The cells were treated with compounds C9 ([…]) and C21 (≤), and vinblastine ([…]) (Sigma-Aldrich, Germany) for 24 h. After, the cells were labeled with Annexin V-FITC and 5 μg/mL PI. The results were expressed as percent-age. The data are the mean ± SEM of 3 experiments performed in duplicate.

The target of data set [10] is T1, cathepsin B. The data set can be described thus: Cathepsin B inhibition kinetics and mechanism. Format: biochemical. The note with it: Cat B; for Mec. (mechanism of inhibition): SLNC = simple linear non-competitive, SLC = simple linear competitive. The procedure: (§5) For every kinetic measurement, the compounds were pre-incubated with each enzyme for 10 min before adding the substrate. All kinetic assays were carried out in duplicate. Inhibition constants were determined using different equations, depending on the inhibition mechanism. The assumed KM values of cathepsin B and cathepsin L for Z-FR-AMC were 23.4 µM and 2 µM, respectively, as previously described. The data of the activity rate and substrate concentration generated rectangular hyperbolic profiles that were linearized using the Lineweaver–Burk/double reciprocal plot. The replot profiles of the slope vs inhibitor and intercept vs inhibitor provided the Ki and αKi parameters, respectively.

Data set [11] deals with T2, cathepsin L. The experiment in a line: Cathepsin L inhibition kinetics and mechanism. Format: biochemical. The note with it: Cat L; for Mec. (mechanism of inhibition): SLNC = simple linear non-competitive, SLC = simple linear competitive. As for the experimental part:
as §5

Data set [12] deals with CCRF-CEM cells. The experiment in a line: Cytochrome c release, confocal colocalization. The note with it: CCRF-CEM lineage after treatment; control cells 25–35%. Format: cell-based, human. As for the experimental part: The release of cytochrome c from the mitochondria was estimated by using double-labeled confocal cell imaging with MitoTracker Green (Invitrogen, Waltham, MA, USA) and a cytochrome c antibody. Jurkat and CCRF-CEM cells (2 × 10^5 cells/mL) were incubated with C9 and C21 compounds for 12 h. Then, cells were incubated with 100 nM MitoTracker Green (Invitrogen, Waltham, MA, USA) for 30 min at 37 °C. Following this, cells were washed with PBS, fixed with 2% paraformaldehyde in PBS for 30 min and permeabilized with 0.01% saponin in PBS for 15 min. Then, the cells were incubated with a monoclonal rabbit antibody against human cytochrome c at 1:100 dilutions (0.5 μg/mL, Cell Signaling, Danvers, MA, USA) for 2 h at room temperature. […] Alexa Fluor 647 was excited using a HeNe laser (λEx = 633 nm) and its emissions were detected at 650–700 nm. MitoTracker Green was excited using an argon laser (λEx = 488 nm) and its emissions were detected at 500–550 nm. DAPI was excited with a diode laser (λEx = 405 nm) and its emissions were detected at […]. […]
The quantitative evaluation of colocalization was performed by using the percentage of colocalized between channels, which correspond to the pixels with red fluorescence and green or blue fluorescence. […] The colocalization coefficient was calculated using the Imaris software.

Data set [13] concerns cleaved caspase-3 in CCRF-CEM cells. The data set can be described thus: Cleaved caspase-3 by flow cytometry. In kind it is cell-based, human. The note with it: 12 h of treatment, EC50 of the compounds. As for the experimental part:
(§6) Jurkat and CCRF-CEM cells (2 × 10^5 cells/mL) were treated with C9 and C21 compounds for 12 h. Then, the cells were centrifuged, washed, fixed with 2% paraformaldehyde in PBS for 30 min and permeabilized with 0.01% saponin in PBS for 15 min at room temperature. Afterwards, the cells were incubated for 1 h at 37 °C with anti-cleaved-caspase 3-FITC monoclonal antibodies (Cell Signaling, Danvers, MA, USA) or mouse anti-cleaved PARP-PE/CF594 (Asp^214) antibodies (BD Biosciences, San Jose CA, USA). After incubation, the fluorescence was analyzed using an Accuri C6 flow cytometer (BD Biosciences, San Jose, CA, USA). A total of 10,000 events were acquired per sample.

In data set [14] the test system is cleaved caspase-3 in Jurkat cells. The data set can be described thus: Cleaved caspase-3 by flow cytometry. In kind it is cell-based, human. Particulars: 12 h of treatment, EC50 of the compounds. As for the experimental part:
as §6

In data set [15] the test system is PARP-1 cleavage in CCRF-CEM cells. The experiment in a line: Cleaved PARP by flow cytometry. Format: cell-based, human. The note with it: 12 h of treatment, EC50 of the compounds. The procedure: as §6
Data set [16] concerns PARP-1 cleavage in Jurkat cells. The data set can be described thus: Cleaved PARP by flow cytometry. Format: cell-based, human. The note with it: 12 h of treatment, EC50 of the compounds. The procedure:
as §6

In data set [17] the test system is T-cell lymphomas lineages. Also on record: method as in PMID 24225136. The note with it: cited from earlier work.

A value given as a limit tells only on which side of the number the result lay.

As to `CCCCCCCCCCCCCCCCOP(=O)([O-])OCC[N+](C)(C)C` [Compound 1, hexadecyl 2-(trimethylazaniumyl)ethyl phosphate, reference compound], the results for the half-maximal effective concentration (EC50) in data set [1], in data set [2] and in data set [3] (against the studied lines) were 120 ± 3 µM, 186 ± 12 µM and 120 to 200 µM, respectively. The IC50 worked out at 7.5 ± 0.1 µM in data set [4] and 10.5 ± 0.2 µM in data set [5].

Take `CC(=O)OCCCc1cn(CCCCCCCCCCCCOS(C)(=O)=O)nn1` [Compound 21]: the 50% effective concentration (EC50) in data set [6] was 96 ± 1 µM; in data set [1] it was 60 ± 2 µM; in data set [2] it was 77 ± 1.5 µM; in data set [7] it was over 140 µM; in data set [8] it was over 140 µM. Besides, the “cytotoxicity to PBMCs compared with vinblastine” value in [9] is “less cytotoxic than vinblastine”. Further, the “sensitivity of PBMCs compared with the tumor lineages” value in data set [9] is reported as “significantly less sensitive”. In addition, the 50% inhibitory concentration (IC50) came to 3.9 ± 0.2 µM in data set [4] and 1.6 ± 0.1 µM in [5]. For the same compound, the values for the Ki in data set [10] and in [11] were 27.4 ± 1.2 µM and 9.72 ± 1.23 µM, respectively. Also, the values for the α in [10] and in data set [11] (listed as C21) were 1.6 and 1, respectively. The αKi was 43.9 ± 1.7 µM in [10] and 10.47 ± 1.17 µM in data set [11]. The “Mec. (mechanism of inhibition)” value was “simple linear noncompetitive inhibition and SLNC” in data set [10] (listed as C21); “simple linear noncompetitive inhibition and SLNC” in [11] (listed as C21). The “colocalization coefficient between the green and red channel” value in [12] is reported as 30–40%. The “cleaved caspase-3” value is recorded as “less intense” in data set [13] and “increase” in data set [14]. The PARP-1 cleavage result is given as “did not occur” in data set [15] and “observed” in data set [16].

For the compound `CCCCCCCC/C=C\CCCCCCCCCCCCOP(=O)([O-])OCC[N+](C)(C)C` [erufosine], in data set [17], the EC50 is about 60 µM.

On to `OCCCc1cn(CCCCCCCCCCCCI)nn1` [Compound 9], for which the 50% effective concentration (EC50) in [6] was 71 ± 0.8 µM; in [1] it was 40 ± 1.2 µM; in data set [2], 63 ± 1 µM; in [7], over 140 µM; in data set [8] it was over 140 µM; in [3] (in Jurkat and CCRF-CEM lineages), 40 to 70 µM. Moreover, the “cytotoxicity to PBMCs compared with vinblastine” value in data set [9] is on record as “less cytotoxic than vinblastine”. Moreover, the “sensitivity of PBMCs compared with the tumor lineages” value in data set [9] is on record as “significantly less sensitive”. The results for the IC50 in data set [4] and in data set [5] were 3.5 ± 0.2 µM and 1.3 ± 0.1 µM, respectively. The values for the inhibition constant (Ki) in data set [10] and in [11] were 15.3 ± 0.6 µM and 3.56 ± 0.26 µM, respectively. Moreover, the “Mec. (mechanism of inhibition)” value in data set [10] (listed as C9) was “simple linear competitive inhibition and SLC”; in data set [11] (listed as C9), “simple linear noncompetitive inhibition and SLNC”. The compound further came in with a αKi in [11] of 3.66 ± 0.07 µM. The α in [11] (listed as C9) is 1. For the same compound, in data set [12], the “colocalization coefficient between the green and red channel” value is 30–40%. The “cleaved caspase-3” value in data set [13] is listed as “less intense”; in data set [14] it was “increase”. The PARP-1 cleavage entry in data set [15] is “did not occur”; in data set [16] it was “observed”.
